The values that follow come from ChEMBL document CHEMBL1153301, “Identification and SAR of novel diaminopyrimidines. Part 1: The discovery of RO-4, a dual P2X(3)/P2X(2/3) antagonist for the treatment of pain” (Bioorg Med Chem Lett, 2009).

One experiment addresses T1, P2X purinoceptor 3 (Rattus norvegicus, UniProt P49654).
T1 sequence (P49654 whole entry): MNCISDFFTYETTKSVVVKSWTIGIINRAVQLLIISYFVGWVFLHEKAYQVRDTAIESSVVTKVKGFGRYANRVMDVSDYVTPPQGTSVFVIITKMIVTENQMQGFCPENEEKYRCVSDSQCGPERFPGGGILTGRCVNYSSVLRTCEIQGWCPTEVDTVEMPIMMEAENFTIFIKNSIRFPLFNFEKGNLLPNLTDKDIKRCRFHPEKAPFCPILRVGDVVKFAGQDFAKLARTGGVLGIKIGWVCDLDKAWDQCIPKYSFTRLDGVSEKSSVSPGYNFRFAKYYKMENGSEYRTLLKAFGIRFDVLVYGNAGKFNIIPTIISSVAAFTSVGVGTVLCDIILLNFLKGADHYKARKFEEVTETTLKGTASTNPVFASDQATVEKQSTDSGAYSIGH
The experiment is described as follows: Antagonist activity at rat recombinant P2X3 receptor expressed in CHO cells by FLIPR assay.

The target of experiment [1] is T2, P2X2/P2X3 heterotrimeric receptor (Homo sapiens, UniProt P56373+Q9UBL9).
T2 sequence (Q9UBL9 whole entry): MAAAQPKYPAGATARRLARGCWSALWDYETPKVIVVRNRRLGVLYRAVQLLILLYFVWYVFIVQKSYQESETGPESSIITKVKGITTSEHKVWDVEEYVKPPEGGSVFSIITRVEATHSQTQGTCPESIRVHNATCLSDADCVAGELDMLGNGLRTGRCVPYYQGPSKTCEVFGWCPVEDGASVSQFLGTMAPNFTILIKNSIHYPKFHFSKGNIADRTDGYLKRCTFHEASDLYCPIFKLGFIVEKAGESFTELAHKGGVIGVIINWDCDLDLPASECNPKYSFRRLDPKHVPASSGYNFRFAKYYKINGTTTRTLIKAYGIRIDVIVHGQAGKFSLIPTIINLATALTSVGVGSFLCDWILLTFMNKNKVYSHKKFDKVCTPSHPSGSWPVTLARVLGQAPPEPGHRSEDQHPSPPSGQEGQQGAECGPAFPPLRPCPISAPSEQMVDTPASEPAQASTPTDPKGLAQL
T2 sequence (P56373 whole entry): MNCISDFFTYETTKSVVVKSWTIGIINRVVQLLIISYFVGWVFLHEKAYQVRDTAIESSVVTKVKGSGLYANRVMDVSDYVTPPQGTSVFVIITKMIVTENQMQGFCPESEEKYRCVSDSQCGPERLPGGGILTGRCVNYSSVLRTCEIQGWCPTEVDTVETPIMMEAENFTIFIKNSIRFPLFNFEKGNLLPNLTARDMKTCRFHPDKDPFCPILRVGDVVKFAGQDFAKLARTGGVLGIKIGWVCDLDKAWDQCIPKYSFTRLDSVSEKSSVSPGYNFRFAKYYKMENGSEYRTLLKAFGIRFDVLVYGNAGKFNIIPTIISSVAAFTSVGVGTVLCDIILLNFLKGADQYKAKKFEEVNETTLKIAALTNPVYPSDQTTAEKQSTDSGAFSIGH
The experiment is described as follows: Antagonist activity at human recombinant P2X2/3 receptor expressed in human 1321N1 cells by FLIPR assay. It is filed as functional, cell-based.

Structures are written as SMILES. Some results are limits rather than exact numbers.

A word on the IC50: it is the point on the concentration scale where inhibition reaches its midpoint.

`COc1ccc(C(C)C)c(Oc2cnc(N)nc2N)c1`: the IC50 on P2X purinoceptor 3 is 0.398 µM; in experiment [1] it was 0.158 µM.
In the case of `COc1cc(C(C)C)c(Oc2cnc(N)nc2N)cc1C`, the half-maximal inhibitory concentration (IC50) was 0.1 µM on P2X purinoceptor 3 and 0.398 µM in experiment [1].
For `COc1cc(C(C)C)c(Oc2cnc(N)nc2N)cc1Cl`, the IC50 on P2X purinoceptor 3 was 0.0251 µM; in experiment [1], 0.1 µM.
Take `COc1cc(C(C)C)c(Oc2cnc(N)nc2N)cc1C#N`: the concentration for half-maximal inhibition (IC50) at P2X purinoceptor 3 was 0.631 µM; in experiment [1], 2.51 µM.
The like results for `COc1cc(Cc2cnc(N)nc2N)c(C2CCC2)cc1OC` were, in that order, more than 10 µM and more than 10 µM.
Regarding `COc1cc(C(C)C)c(C(O)c2cnc(N)nc2N)cc1OC` (centres undefined), the IC50 (on P2X purinoceptor 3; in experiment [1]) was more than 10 µM each time.
On to `COc1cc(C(=O)c2cnc(N)nc2N)c(C(C)C)cc1OC`, for which the half-maximal inhibitory concentration (IC50) (at P2X purinoceptor 3; in experiment [1]) was more than 10 µM throughout.
As for `COc1cc(C(C)C)c(Oc2cnc(N)nc2N)cc1S(C)(=O)=O`, the IC50 is 0.1 µM on P2X purinoceptor 3 and 1 µM in experiment [1].
For `COc1cc(C(C)C)c(Oc2cnc(N)nc2N)cc1-c1ncc[nH]1`, in that order: 0.158 µM and 0.631 µM.
As to `COc1cc(C(C)C)c(Oc2cnc(N)nc2N)cc1C1=NCCN1`, the IC50 (at P2X purinoceptor 3; in experiment [1]) was more than 10 µM each time.
For the molecule `COc1cc(Oc2cnc(N)nc2N)c(C(C)C)cc1I`, the IC50 at P2X purinoceptor 3 is 0.0398 µM; in experiment [1], 0.398 µM.
In the case of `COc1cc(C(C)C)c(Oc2cnc(N)nc2N)cc1C(C)C`, the IC50 was 0.501 µM at P2X purinoceptor 3 and 2 µM in experiment [1].
Consider `COc1cc(Cc2cnc(N)nc2N)c(C2CC2)cc1OC`, for which the IC50 on P2X purinoceptor 3 was 1.26 µM; in experiment [1] it was more than 10 µM.
In the case of `COc1cc(Cc2cnc(N)nc2N)c(CC(C)C)cc1OC`, the values for the concentration for half-maximal inhibition (IC50) (at P2X purinoceptor 3; in experiment [1]) were more than 10 µM and 10 µM, respectively.
On to `CCc1cc(OC)c(OC)cc1Cc1cnc(N)nc1N`, for which, in experiment [1], the IC50 was more than 10 µM.
On to `COc1cc(Cc2cnc(N)nc2N)c(C(C)C)cc1OC`, for which the IC50 in experiment [1] is 2 µM.
Consider `CCc1cc(OC)c(OC)cc1Oc1cnc(N)nc1N`, for which the IC50 on P2X purinoceptor 3 is 0.158 µM; in experiment [1], 2 µM.
With `COc1cc(Oc2cnc(N)nc2N)c(C(C)C)cc1OC`, on P2X purinoceptor 3, the IC50 was 0.0251 µM.
Regarding `CC(C)c1ccccc1Oc1cnc(N)nc1N`, the results for the IC50 (at P2X purinoceptor 3; in experiment [1]) were 3.98 µM and 2 µM, respectively.
The like results for `COc1cc(Oc2cnc(N)nc2N)c(C(C)C)cc1C#N` were, in that order, more than 10 µM and more than 10 µM.
For the molecule `COc1cc(C(C)C)c(Oc2cnc(N)nc2N)cc1F`, the IC50 on P2X purinoceptor 3 was 3.16 µM; in experiment [1], 1.58 µM.
With `COc1cc(C(C)C)c(Oc2cnc(N)nc2N)cc1-c1ccccc1`, the IC50 was 1 µM at P2X purinoceptor 3 and 2.51 µM in experiment [1].
With `COc1cc(C(C)C)c(Oc2cnc(N)nc2N)cc1Br`, the IC50 was 0.02 µM at P2X purinoceptor 3 and 0.0794 µM in experiment [1].
Take `C#Cc1cc(Oc2cnc(N)nc2N)c(C(C)C)cc1OC`: the concentration for half-maximal inhibition (IC50) in experiment [1] was 0.0126 µM.
With `COc1cc(Cc2cnc(N)nc2N)c(C(C)(C)C)cc1OC`, the IC50 in experiment [1] was more than 10 µM.
Consider `COc1cc(C(C)C)c(Oc2cnc(N)nc2N)cc1C(=O)O`, for which the values for the IC50 (on P2X purinoceptor 3; in experiment [1]) were 0.158 µM and 0.316 µM, respectively.
As to `CCc1cc(Oc2cnc(N)nc2N)c(C(C)C)cc1OC`, the results for the IC50 (at P2X purinoceptor 3; in experiment [1]) were 0.0501 µM and 0.158 µM, respectively.
With `COc1ccc(Oc2cnc(N)nc2N)c(C(C)C)c1`, the IC50 was 1.58 µM on P2X purinoceptor 3 and 0.398 µM in experiment [1].
For `CCc1cc(OC)c(OC)cc1CCc1cnc(N)nc1N`, the IC50 (at P2X purinoceptor 3; in experiment [1]) was more than 10 µM in each case.
With `COc1cc(C(C)C)c(Oc2cnc(N)nc2N)cc1C(N)=O`, the IC50 was 0.1 µM on P2X purinoceptor 3 and 1.58 µM in experiment [1].
For `COc1cc(C(C)C)c(Oc2cnc(N)nc2N)cc1-c1nnn[nH]1`, the IC50 at P2X purinoceptor 3 is 0.0398 µM; in experiment [1], 0.316 µM.
On to `COc1cc(Oc2cnc(N)nc2N)c(C(C)C)cc1-c1ccc(F)cc1`, for which the concentration for half-maximal inhibition (IC50) is 2.51 µM at P2X purinoceptor 3 and 7.94 µM in experiment [1].
The like results for `COc1cc(Oc2cnc(N)nc2N)c(C(C)C)cc1Br` were, in that order, 0.0794 µM and 0.316 µM.
On to `CCCc1cc(OC)c(OC)cc1Cc1cnc(N)nc1N`, for which the IC50 in experiment [1] is more than 10 µM.
For the molecule `COc1cc(C)c(Cc2cnc(N)nc2N)cc1OC` [ORMETOPRIM], the IC50 (at P2X purinoceptor 3; in experiment [1]) was more than 10 µM throughout.
